Holding throughout (format): biochemical
The target in test [1] is T1, HCMV polymerase (Human cytomegalovirus, UniProt P08546).
T1 construct: made in house; host or cells: recombinant baculovirus-infected SF-9 cells
Description: HCMV polymerase scintillation proximity assay (modified version). Particulars: modified SPA assay, compounds diluted in 100% DMSO, 4.5 mM DTT. How it is done: The HCMV polymerase assay is performed using a scintillation proximity assay (SPA) as described in several references, such as N. D. Cook, et al., Pharmaceutical Manufacturing International, pages 49-53 (1992); K. Takeuchi, Laboratory Practice, September issue (1992); U.S. Pat. No. 4,568,649 (1986); which are incorporated by reference herein. Reactions are performed in 96-well plates. The assay is conducted in 100 μl volume with 5.4 mM HEPES (pH 7.5), 11.7 mM KCl, 4.5 mM MgCl2, 0.36 mg/ml BSA, and 90 nM ^3H-dTTP. Assays are run with and without CHAPS, (3-[(3-cholamidopropyl)-dimethylammonio]-1-propane-sulfonate) at a final concentration of 2 mM. HCMV polymerase is diluted in enzyme dilution buffer containing 50% glycerol, 250 mM NaCl, 10 mM HEPES (pH 7.5), 100 μg/ml BSA, and 0.01% sodium azide. […] Plates are incubated 10 min. at 37° C., then equilibrated to room temperature, and counted on a Packard Topcount. Linear regressions are performed and IC50's are calculated using computer software.
A modified version of the above HCMV polymerase assay is performed as described above, but with the following changes: Compounds are diluted in 100% DMSO until final dilution into assay buffer. […] In Table 1, the term “nd” refers to activity data not determined.
A general note: In a scintillation proximity assay essentially only radioactivity close to the scintillant gives light.

In test [2] the target is HSV polymerase (Human herpesvirus 1, UniProt P04293). Description: HSV polymerase assay (Table 1).
Chain of HSV polymerase (P04293 whole entry): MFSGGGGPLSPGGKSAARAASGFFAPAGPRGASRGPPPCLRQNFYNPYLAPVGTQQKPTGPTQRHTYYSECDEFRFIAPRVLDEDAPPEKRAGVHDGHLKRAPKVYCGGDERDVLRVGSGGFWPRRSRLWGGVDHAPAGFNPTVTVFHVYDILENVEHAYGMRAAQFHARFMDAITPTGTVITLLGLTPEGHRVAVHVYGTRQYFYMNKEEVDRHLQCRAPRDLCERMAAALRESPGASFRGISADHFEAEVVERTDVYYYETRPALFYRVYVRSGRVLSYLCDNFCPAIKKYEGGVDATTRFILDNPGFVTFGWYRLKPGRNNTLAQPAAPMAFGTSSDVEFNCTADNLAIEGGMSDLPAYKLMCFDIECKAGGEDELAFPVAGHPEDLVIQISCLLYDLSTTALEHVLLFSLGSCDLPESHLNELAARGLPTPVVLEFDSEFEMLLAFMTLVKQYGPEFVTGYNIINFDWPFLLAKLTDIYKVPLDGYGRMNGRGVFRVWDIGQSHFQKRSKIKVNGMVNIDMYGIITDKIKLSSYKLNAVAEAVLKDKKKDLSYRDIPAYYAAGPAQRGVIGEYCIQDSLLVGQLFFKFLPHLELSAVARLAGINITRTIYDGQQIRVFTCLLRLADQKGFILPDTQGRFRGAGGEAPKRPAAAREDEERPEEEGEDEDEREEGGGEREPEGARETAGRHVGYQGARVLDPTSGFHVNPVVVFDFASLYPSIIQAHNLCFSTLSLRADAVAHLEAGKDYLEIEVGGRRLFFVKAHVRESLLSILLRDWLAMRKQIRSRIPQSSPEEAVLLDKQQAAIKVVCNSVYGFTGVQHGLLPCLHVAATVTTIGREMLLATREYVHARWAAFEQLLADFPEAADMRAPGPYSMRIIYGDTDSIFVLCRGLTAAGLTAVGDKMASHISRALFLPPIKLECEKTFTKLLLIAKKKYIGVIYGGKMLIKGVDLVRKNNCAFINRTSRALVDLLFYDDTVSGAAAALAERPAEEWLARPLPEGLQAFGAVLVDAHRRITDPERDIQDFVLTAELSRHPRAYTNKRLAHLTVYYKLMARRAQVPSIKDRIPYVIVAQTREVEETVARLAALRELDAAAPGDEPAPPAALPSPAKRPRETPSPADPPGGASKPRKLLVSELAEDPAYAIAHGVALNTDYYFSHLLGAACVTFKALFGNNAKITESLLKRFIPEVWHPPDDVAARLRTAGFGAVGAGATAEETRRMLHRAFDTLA
The target in test [3] is VZV polymerase (Varicella-zoster virus, UniProt P09252). Nature of the test: VZV polymerase assay (Table 1).
Chain of VZV polymerase (P09252 whole entry): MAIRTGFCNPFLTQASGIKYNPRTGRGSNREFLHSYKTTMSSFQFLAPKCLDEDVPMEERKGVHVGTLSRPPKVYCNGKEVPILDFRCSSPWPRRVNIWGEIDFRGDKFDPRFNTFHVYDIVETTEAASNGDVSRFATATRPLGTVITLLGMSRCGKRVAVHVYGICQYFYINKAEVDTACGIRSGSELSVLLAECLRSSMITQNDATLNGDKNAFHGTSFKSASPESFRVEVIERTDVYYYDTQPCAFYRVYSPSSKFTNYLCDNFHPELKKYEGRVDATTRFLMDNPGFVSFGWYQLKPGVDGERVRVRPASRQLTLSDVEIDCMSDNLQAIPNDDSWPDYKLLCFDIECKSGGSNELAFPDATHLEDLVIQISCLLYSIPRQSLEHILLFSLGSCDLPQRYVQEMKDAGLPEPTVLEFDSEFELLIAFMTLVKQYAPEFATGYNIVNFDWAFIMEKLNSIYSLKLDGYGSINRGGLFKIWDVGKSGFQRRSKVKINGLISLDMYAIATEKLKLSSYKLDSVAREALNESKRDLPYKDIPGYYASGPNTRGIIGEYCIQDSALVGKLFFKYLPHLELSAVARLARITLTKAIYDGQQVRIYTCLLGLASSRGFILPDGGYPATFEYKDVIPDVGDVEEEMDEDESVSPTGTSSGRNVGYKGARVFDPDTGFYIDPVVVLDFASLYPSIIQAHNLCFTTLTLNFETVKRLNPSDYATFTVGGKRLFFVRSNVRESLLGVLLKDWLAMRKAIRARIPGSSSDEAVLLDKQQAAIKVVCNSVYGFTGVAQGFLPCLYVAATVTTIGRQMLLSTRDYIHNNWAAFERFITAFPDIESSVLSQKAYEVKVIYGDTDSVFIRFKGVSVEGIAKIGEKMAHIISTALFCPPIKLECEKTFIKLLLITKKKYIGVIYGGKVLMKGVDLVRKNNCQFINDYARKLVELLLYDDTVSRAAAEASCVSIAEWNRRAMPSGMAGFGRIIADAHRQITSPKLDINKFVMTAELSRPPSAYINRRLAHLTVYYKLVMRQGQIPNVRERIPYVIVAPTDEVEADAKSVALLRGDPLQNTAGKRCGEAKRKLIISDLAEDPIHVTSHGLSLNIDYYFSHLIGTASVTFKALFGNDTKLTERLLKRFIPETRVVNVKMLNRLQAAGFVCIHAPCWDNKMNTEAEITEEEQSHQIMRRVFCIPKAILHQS

As usually defined, the IC50 is the point on the concentration scale where inhibition reaches its midpoint. Read a low IC50 as higher potency.

T1 sequence (P08546 whole entry): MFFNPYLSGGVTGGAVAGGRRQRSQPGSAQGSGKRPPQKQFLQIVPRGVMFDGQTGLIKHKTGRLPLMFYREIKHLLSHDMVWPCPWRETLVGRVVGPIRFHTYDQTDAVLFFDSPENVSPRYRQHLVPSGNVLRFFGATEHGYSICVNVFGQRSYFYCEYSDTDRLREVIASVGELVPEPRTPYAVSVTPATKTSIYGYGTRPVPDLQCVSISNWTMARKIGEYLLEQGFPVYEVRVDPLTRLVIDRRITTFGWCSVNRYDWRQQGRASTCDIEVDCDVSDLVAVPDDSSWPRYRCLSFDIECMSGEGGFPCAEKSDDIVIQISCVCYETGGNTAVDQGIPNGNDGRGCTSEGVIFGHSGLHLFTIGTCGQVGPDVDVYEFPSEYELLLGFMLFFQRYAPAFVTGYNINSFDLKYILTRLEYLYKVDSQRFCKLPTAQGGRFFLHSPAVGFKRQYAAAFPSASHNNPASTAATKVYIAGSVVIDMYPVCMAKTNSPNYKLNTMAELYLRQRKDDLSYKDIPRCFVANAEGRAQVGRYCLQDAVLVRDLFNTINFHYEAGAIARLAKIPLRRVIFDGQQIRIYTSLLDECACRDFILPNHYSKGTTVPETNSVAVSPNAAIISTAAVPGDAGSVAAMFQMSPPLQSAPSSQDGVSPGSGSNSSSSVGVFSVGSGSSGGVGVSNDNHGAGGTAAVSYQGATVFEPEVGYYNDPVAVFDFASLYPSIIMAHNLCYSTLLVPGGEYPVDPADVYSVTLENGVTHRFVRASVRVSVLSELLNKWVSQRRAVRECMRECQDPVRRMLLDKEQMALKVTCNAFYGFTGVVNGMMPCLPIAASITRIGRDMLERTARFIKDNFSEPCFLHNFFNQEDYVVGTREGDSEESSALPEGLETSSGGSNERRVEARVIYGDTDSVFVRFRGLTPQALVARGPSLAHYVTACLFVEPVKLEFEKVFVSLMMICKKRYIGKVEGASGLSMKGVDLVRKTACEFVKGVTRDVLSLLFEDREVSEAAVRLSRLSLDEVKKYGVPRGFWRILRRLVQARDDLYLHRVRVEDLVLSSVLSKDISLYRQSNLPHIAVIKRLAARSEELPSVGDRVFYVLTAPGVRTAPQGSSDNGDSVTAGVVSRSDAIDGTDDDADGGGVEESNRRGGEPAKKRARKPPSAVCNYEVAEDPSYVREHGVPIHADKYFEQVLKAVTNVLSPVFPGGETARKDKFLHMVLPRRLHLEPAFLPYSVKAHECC

On to `Cn1cc(C(=S)NCc2ccc(Cl)cc2)c(=S)c2cc(CN3CCOCC3)sc21` [Example 1, N-(4-Chlorobenzyl)-7-methyl-2-(4-morpholinylmethyl)-4-thioxo-4,7-dihydrothieno[2,3-b]pyridine-5-carbothioamide], for which the figures for the IC50 in test [1], in test [2] and in test [3] were 910 nM, 360 nM and 130 nM, respectively.

Values taken from patent US6924283B2, “4-thioxo-4,7-dihydro-thieno[2,3-b]pyridine-5-carbothioamides as antiviral agents” (Pfizer, priority 2001, dated 2005).
